{"source": "patent US11744819B2", "about": "“Antibiotic cannabinoid-terpene formulations” (priority 2019, dated 2023)", "key": {"[1]": {"test_system": "Staphylococcus aureus MRSA", "test": "microbe, parasite or virus in culture", "format": "cell-based"}, "[2]": {"test_system": "Streptococcus pyogenes ATCC 51878", "test": "MIC determination", "format": "cell-based", "conditions": "ATCC51878"}, "Enterococcus faecalis": {"test_system": "Enterococcus faecalis", "test": "MIC determination", "format": "cell-based"}, "[3]": {"test_system": "Staphylococcus epidermidis ATCC 14990", "test": "MIC determination", "format": "cell-based", "conditions": "ATCC14990"}, "[4]": {"test_system": "Staphylococcus epidermidis ATCC 12228", "test": "MIC determination", "format": "cell-based", "conditions": "ATCC12228"}, "E. faecium 3303": {"test_system": "E. faecium 3303", "test": "microbe, parasite or virus in culture", "format": "cell-based, Enterococcus faecium", "conditions": "for MIC Alone / MIC In combination / Max. fold change in MIC: E. faecium 3303; for MIC Alone / MIC: compound alone in checkerboard; for Max. fold change in MIC: decrease; for MIC: Enterococcus faecium, 3303, read-out: MIC Alone, E. faecium 3303", "text": "In therapeutic applications, synergy between active ingredients occurs when an observed combined therapeutic effect is greater than the sum of therapeutic effects of individual active ingredients, or a new therapeutic effect is produced that the active ingredients could not produce alone. […] In this context, the enhancement of therapeutic effect may take the form of increased efficacy or potency and/or decreased adverse effects. The synergistic effect may be mediated in whole or in part by the pharmacokinetics and/or pharmacodynamics of the active ingredients in a subject, so that the amount and proportion of the ingredients in the formulation may be synergistic in vivo. This in vivo synergy may be effected with a formulation that includes the active ingredients in amounts and proportions that are also synergistic in in vitro assays of efficacy. As used herein, the term “synergistically effective amounts” accordingly refers to amounts that are synergistic in vivo and/or in vitro. A numeric quantification of synergy is often expressed as a fractional inhibitory concentration index (FICI), which represents the sum of the fractional inhibitory concentrations (FICs) of each drug tested, where the FIC is determined for each drug by dividing the minimum inhibitory concentration (MIC, the lowest concentration of the drug which prevents visible growth of the bacterium in a standard in vitro assay-standard colorometric assay based on resazurin) of each drug when used in combination by the MIC of each drug when used alone. In very general terms, a FICI lower or higher than 1 indicates positively correlated activity (at least additive or potentiation) or an absence of positive interactions, respectively. More definitively, synergy of two compounds may be conservatively defined as a FICI of ::::0.5 (see Odds, 2003; with additivity or potentiation corresponding to a FICI of >0.5 to ::::0.75; no interaction (indifference) corresponding to a FICI of >1 to ::::4; and antagonism corresponding to a FICI of >>4). Synergy of three compounds has been defined as a FICI of ::::1.0. (Berenbaum, 1978; Yu et al., 1980). To estimate the optimal concentrations in triple combinations, the optimal concentrations of trans-caryophyllene and cannabinoid were utilized in combination with a series of daptomycin dilutions.\n(§1) Pre-cultures of bacteria growing in their corresponding liquid media (defined below) were diluted to an 00600 of 0.0025 and 100 μl was added to 100 μl of medium containing serial 2-fold dilutions of cannabinoid (cannabinoid stocks, in methanol or acetonitrile for acidic forms, were diluted in growth medium) in 96-well plates. Plates were then incubated for 20-24 h at 37° C., and growth was recorded as 00600 in a Thermo Scientific™ Varioskan™ Flash Multimode Reader.\nMethod for Tables 4-7. Interaction of Cannabinoids CBC, CBD and CBG with Terpenes and Daptomycin:\n(§2) FICI values was determined in a 96 well checkerboard format using the MIC assay for cannabinoids (compound A), terpenes (compound B), and daptomycin (compound C) alone and in combinations. Terpene stocks were prepared in DMSO and diluted in the growth medium. The fractional inhibitory concentration for each compound was calculated as follows: FICA=(MIC of compound A in the presence of compound B)/(MIC of compound A alone). Similarly, the FICs for compounds Band C were calculated. The FICI was calculated as FICA plus FICs plus FICc."}, "E. faecium VRE 55A6": {"test_system": "E. faecium VRE 55A6", "test": "microbe, parasite or virus in culture", "format": "cell-based, Enterococcus faecium", "conditions": "for MIC Alone / MIC In combination / Max. fold change in MIC: E. faecium VRE 55A6; for MIC Alone / MIC: compound alone in checkerboard; for MIC: Enterococcus faecium, VRE, read-out: MIC Alone, E. faecium VRE 55A6", "text": "In therapeutic applications, synergy between active ingredients occurs when an observed combined therapeutic effect is greater than the sum of therapeutic effects of individual active ingredients, or a new therapeutic effect is produced that the active ingredients could not produce alone. […] In this context, the enhancement of therapeutic effect may take the form of increased efficacy or potency and/or decreased adverse effects. The synergistic effect may be mediated in whole or in part by the pharmacokinetics and/or pharmacodynamics of the active ingredients in a subject, so that the amount and proportion of the ingredients in the formulation may be synergistic in vivo. This in vivo synergy may be effected with a formulation that includes the active ingredients in amounts and proportions that are also synergistic in in vitro assays of efficacy. As used herein, the term “synergistically effective amounts” accordingly refers to amounts that are synergistic in vivo and/or in vitro. A numeric quantification of synergy is often expressed as a fractional inhibitory concentration index (FICI), which represents the sum of the fractional inhibitory concentrations (FICs) of each drug tested, where the FIC is determined for each drug by dividing the minimum inhibitory concentration (MIC, the lowest concentration of the drug which prevents visible growth of the bacterium in a standard in vitro assay-standard colorometric assay based on resazurin) of each drug when used in combination by the MIC of each drug when used alone. In very general terms, a FICI lower or higher than 1 indicates positively correlated activity (at least additive or potentiation) or an absence of positive interactions, respectively. More definitively, synergy of two compounds may be conservatively defined as a FICI of ::::0.5 (see Odds, 2003; with additivity or potentiation corresponding to a FICI of >0.5 to ::::0.75; no interaction (indifference) corresponding to a FICI of >1 to ::::4; and antagonism corresponding to a FICI of >>4). […] (Berenbaum, 1978; Yu et al., 1980). To estimate the optimal concentrations in triple combinations, the optimal concentrations of trans-caryophyllene and cannabinoid were utilized in combination with a series of daptomycin dilutions.\nas §1, §2"}, "[5]": {"test_system": "E. faecium clinical isolate 58C9 (vancomycin and daptomycin resistant)", "conditions": "E. faecium isolate 58c9"}, "[6]": {"test_system": "E. faecium clinical isolate 58C9 (vancomycin and daptomycin resistant)", "test": "microbe, parasite or virus in culture", "conditions": "Enterococcus faecium"}, "[7]": {"conditions": "pairwise, with trans-caryophyllene"}, "[8]": {"conditions": "triple, with daptomycin and trans-caryophyllene"}}, "note": "Where two headings read alike, the source gives them in different places."}
{"molecule": "CCCCCc1cc(O)c2c(c1)OC(C)(CCC=C(C)C)C=C2", "note": "(stereo not drawn) [CBC, cannabichromene]", "values": [{"measurement": "MIC", "setting": "[1]", "value": 4, "unit": "µg/mL"}, {"measurement": "MIC", "setting": "[2]; Streptococcus pyogenes", "value": 1, "unit": "µg/mL"}, {"measurement": "MIC", "setting": "Enterococcus faecalis", "value": 2, "unit": "µg/mL"}, {"measurement": "MIC", "setting": "[3]; Staphylococcus epidermidis", "value": 4, "unit": "µg/mL"}, {"measurement": "MIC", "setting": "[4]; Staphylococcus epidermidis", "value": 4, "unit": "µg/mL"}, {"measurement": "MIC Alone", "setting": "E. faecium 3303", "value": 2, "unit": "µg/mL"}, {"measurement": "MIC In combination", "setting": "E. faecium 3303; pairwise, with daptomycin", "value": 0.5, "unit": "µg/mL"}, {"measurement": "Max. fold change in MIC", "setting": "E. faecium 3303; pairwise, with daptomycin", "value": 4, "unit": "l fold"}, {"measurement": "MIC In combination", "setting": "E. faecium 3303; [7]", "value": 0.125, "unit": "µg/mL"}, {"measurement": "Max. fold change in MIC", "setting": "E. faecium 3303; [7]", "value": 16, "unit": "l fold"}, {"measurement": "MIC In combination", "setting": "E. faecium 3303; [8]", "value": 0.25, "unit": "µg/mL"}, {"measurement": "Max. fold change in MIC", "setting": "E. faecium 3303; [8]", "value": 8, "unit": "l fold"}, {"measurement": "MIC", "setting": "E. faecium 3303", "value": 1, "unit": "µg/mL"}, {"measurement": "MIC Alone", "setting": "E. faecium VRE 55A6", "value": 1, "unit": "µg/mL"}, {"measurement": "MIC In combination", "setting": "E. faecium VRE 55A6; pairwise, with daptomycin", "value": 0.25, "unit": "µg/mL"}, {"measurement": "Max. fold change in MIC", "setting": "E. faecium VRE 55A6; pairwise, with daptomycin", "value": 8, "unit": "fold"}, {"measurement": "MIC In combination", "setting": "E. faecium VRE 55A6; [7]", "value": 0.5, "unit": "µg/mL"}, {"measurement": "Max. fold change in MIC", "setting": "E. faecium VRE 55A6; [7]", "value": 2, "unit": "fold"}, {"measurement": "MIC In combination", "setting": "E. faecium VRE 55A6; [8]", "value": 0.25, "unit": "µg/mL"}, {"measurement": "Max. fold change in MIC", "setting": "E. faecium VRE 55A6; [8]", "value": 8, "unit": "fold"}, {"measurement": "MIC", "setting": "E. faecium VRE 55A6", "value": 2, "unit": "µg/mL"}, {"measurement": "Fold reduction in daptomycin MIC in combination with the cannabinoid", "setting": "[5]", "value": 8, "unit": "Fold"}, {"measurement": "MIC", "setting": "[6]", "value": 1, "unit": "µg/mL"}]}
{"molecule": "C=C(C)[C@@H]1CCC(C)=C[C@H]1c1c(O)cc(CCCCC)cc1O", "note": "[CBD, cannabidiol, reference compound]", "values": [{"measurement": "MIC", "setting": "[1]; read-out: MIC", "value": 2, "unit": "µg/mL"}, {"measurement": "MIC", "setting": "[2]; Streptococcus pyogenes ATCC 51878, read-out: MIC", "value": 1, "unit": "µg/mL"}, {"measurement": "MIC", "setting": "Enterococcus faecalis; read-out: MIC", "value": 2, "unit": "µg/mL"}, {"measurement": "MIC", "setting": "[3]; Staphylococcus epidermidis ATCC 14990, read-out: MIC", "value": 2, "unit": "µg/mL"}, {"measurement": "MIC", "setting": "[4]; Staphylococcus epidermidis ATCC 12228, read-out: MIC", "value": 2, "unit": "µg/mL"}, {"measurement": "MIC Alone", "setting": "E. faecium 3303", "value": 2, "unit": "µg/mL"}, {"measurement": "MIC In combination", "setting": "E. faecium 3303; pairwise, with daptomycin", "value": 1, "unit": "µg/mL"}, {"measurement": "Max. fold change in MIC", "setting": "E. faecium 3303; pairwise, with daptomycin", "value": "4″′ fold"}, {"measurement": "MIC In combination", "setting": "E. faecium 3303; [7]", "value": 0.125, "unit": "µg/mL"}, {"measurement": "Max. fold change in MIC", "setting": "E. faecium 3303; [7]", "value": "16″′ fold"}, {"measurement": "MIC In combination", "setting": "E. faecium 3303; [8]", "value": 0.5, "unit": "µg/mL"}, {"measurement": "Max. fold change in MIC", "setting": "E. faecium 3303; [8]", "value": 4, "unit": "fold"}, {"measurement": "MIC", "setting": "E. faecium 3303", "value": 4, "unit": "µg/mL"}, {"measurement": "MIC Alone", "setting": "E. faecium VRE 55A6", "value": 2, "unit": "µg/mL"}, {"measurement": "MIC In combination", "setting": "E. faecium VRE 55A6; pairwise, with daptomycin", "value": 0.5, "unit": "µg/mL"}, {"measurement": "MIC In combination", "setting": "E. faecium VRE 55A6; [7]", "value": 1, "unit": "µg/mL"}, {"measurement": "MIC In combination", "setting": "E. faecium VRE 55A6; [8]", "value": 0.5, "unit": "µg/mL"}, {"measurement": "MIC", "setting": "E. faecium VRE 55A6", "value": 4, "unit": "µg/mL"}, {"measurement": "MIC", "setting": "[6]", "value": 1, "unit": "µg/mL"}]}
